According to publication PMC7695835, “Pharmacological characterisation of novel adenosine A3 receptor antagonists” (Scientific Reports, 2020):

What was measured:
[1] = molecular target: T1, rat A3R (Rattus norvegicus, UniProt P28647); experiment: NanoBRET ligand-binding, Nluc-rat A3R HEK 293 cells, AV039 tracer; details: for binding at rat A3R: no binding detected below the concentration of 10 μM; for pKi: rat A3R, 100 nM AV039, BRET ratio at 5 minutes, Cheng-Prusoff
T1 sequence (P28647 1-320): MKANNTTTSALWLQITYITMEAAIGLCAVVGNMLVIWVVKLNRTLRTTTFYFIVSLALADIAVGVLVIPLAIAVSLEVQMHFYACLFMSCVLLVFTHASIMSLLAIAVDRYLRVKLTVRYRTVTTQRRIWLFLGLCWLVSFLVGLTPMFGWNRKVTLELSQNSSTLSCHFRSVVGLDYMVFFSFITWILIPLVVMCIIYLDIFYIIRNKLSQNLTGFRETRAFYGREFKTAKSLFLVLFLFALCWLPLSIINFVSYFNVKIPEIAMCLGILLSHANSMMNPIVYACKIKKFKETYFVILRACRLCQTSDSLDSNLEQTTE

[2] = molecular target: T2, A3R (Homo sapiens, UniProt P0DMS8); details: for cAMP accumulation Mean: 10 μM forskolin + NECA IC80 (3.16 nM) + 1 μM compound, mean ± SEM, n = 3; for cAMP accumulation Mean difference between 'NECA' and compound: 10 μM forskolin + NECA IC80 + 1 μM compound; for outcome of cAMP-based screen: 1 μM compound
T2 sequence (P0DMS8 1-318): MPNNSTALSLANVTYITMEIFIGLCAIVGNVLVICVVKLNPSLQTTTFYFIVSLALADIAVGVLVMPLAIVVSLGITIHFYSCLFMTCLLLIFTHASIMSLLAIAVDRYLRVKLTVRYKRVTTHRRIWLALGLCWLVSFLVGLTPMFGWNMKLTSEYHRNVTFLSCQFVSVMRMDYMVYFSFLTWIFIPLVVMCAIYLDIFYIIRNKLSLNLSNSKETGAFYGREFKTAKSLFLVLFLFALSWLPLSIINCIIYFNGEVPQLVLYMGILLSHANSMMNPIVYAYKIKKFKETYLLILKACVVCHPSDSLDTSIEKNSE

[3] = molecular target: T2, A3R; details: 1 nM [3H]HEMADO; ref Lagarias et al.[19]; read-out: Radioligand binding Ki A3R; cited from earlier work
[4] = molecular target: T3, A1R (Homo sapiens, UniProt P30542); design: method as in Lagarias et al.[19]; details: 1 nM [3H]CCPA; ref Lagarias et al.[19]; read-out: Radioligand binding Ki A1R; cited from earlier work
T3 construct: expressed in transfected cells
T3 sequence (P30542 1-326): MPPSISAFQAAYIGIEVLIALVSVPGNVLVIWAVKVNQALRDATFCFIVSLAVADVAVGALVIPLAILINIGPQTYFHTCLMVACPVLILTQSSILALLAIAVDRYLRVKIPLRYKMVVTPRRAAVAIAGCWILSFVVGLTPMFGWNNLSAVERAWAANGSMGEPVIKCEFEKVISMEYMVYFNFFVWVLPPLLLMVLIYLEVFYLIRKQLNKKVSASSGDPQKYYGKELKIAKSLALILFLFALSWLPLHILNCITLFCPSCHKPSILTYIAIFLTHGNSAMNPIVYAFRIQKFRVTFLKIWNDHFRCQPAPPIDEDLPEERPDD

[5] = molecular target: T4, A2AR (Homo sapiens, UniProt P29274); design: method as in Lagarias et al.[19]; details: 10 nM [3H]NECA; ref Lagarias et al.[19]; read-out: Radioligand binding Ki A2AR; cited from earlier work
T4 construct: expressed in transfected cells; host or cells: CHO cells, membrane preparation

[6] = molecular target: T2, A3R; experiment: NECA stimulated cAMP inhibition in A3R Flp-In CHO cells; format: cell-based; details: for Span: difference between Emin and basal; for Emin: lower plateau of NECA curve; for effect on NECA potency / antagonism: 1 μM compound; for effect on NECA potency / antagonism / effect on NECA potency: preliminary data; for Basal: upper plateau of NECA curve; for effect on NECA potency: 10 μM compound
[7] = 1 µM compound + 10 µM forskolin only
[8] = 10 µM compound + 10 µM forskolin only

T4 sequence (P29274 whole entry): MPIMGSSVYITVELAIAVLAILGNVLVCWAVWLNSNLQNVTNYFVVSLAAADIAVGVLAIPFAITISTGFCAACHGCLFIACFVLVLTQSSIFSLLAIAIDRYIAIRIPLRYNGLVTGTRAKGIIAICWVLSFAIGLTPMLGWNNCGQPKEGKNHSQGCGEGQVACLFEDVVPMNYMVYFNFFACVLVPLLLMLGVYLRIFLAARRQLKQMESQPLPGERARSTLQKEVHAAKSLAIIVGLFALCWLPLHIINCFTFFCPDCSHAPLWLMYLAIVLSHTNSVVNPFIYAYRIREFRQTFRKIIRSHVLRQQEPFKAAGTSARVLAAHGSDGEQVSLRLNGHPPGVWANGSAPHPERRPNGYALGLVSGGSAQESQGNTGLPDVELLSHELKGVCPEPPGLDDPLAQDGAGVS

SMILES	cAMP accumulation Mean [2] [%10 μM forskolin response]	cAMP accumulation Mean difference between 'NECA' and compound [2] [%10 μM forskolin response]	Ki [3] [µM]	Ki [4] [µM]	Ki [5] [µM]	further results
COc1ccc(-n2nc3c(NC(=O)CCC(=O)NCCOCCOCCNC(=O)CCCCCNC(=O)COc4ccc(/C=C/C5=[N+]6C(=Cc7ccc(-c8cccs8)n7[B-]6(F)F)C=C5)cc4)nc4ccccc4n3c2=O)cc1 [AV039, reference compound]	–	–	–	–	–	Kd ([1]; read-out: KD (saturation binding), fluorescent tracer at Nluc-rat A3R): 0.102 ± 0.00759 µM
COc1ccc(CSC(=N)Nc2ccccc2Cl)cc1.Cl [Compound K2]	68.28 ±2.94	-7.96	16.6	> 100	61.3	–
Cc1nc(C(N)=NOC(=O)c2c(-c3ccccc3)noc2C)cs1 [Compound K5]	–	–	–	> 100	21.8	–
Cc1onc(-c2ccccc2Cl)c1C(=O)O/N=C(\N)c1ccc(I)cc1 [Compound K9]	–	–	–	6.91	> 100	–
Cc1onc(-c2ccccc2Cl)c1C(=O)O/N=C(\N)c1cccnc1 [Compound K10]	–	–	–	> 60	> 60	binding at rat A3R [1]: very weak binding; pKi [1]: 4.19 ± 0.09
Cc1onc(-c2ccccc2Cl)c1C(=O)O/N=C(\N)c1ccncc1 [Compound K11]	–	–	–	> 60	30	–
COc1ccc(CCNC(=O)c2c(N)sc3c2CCC3)cc1OC [Compound K13]	56.25 ±1.44	4.07	16.5	> 30	> 60	–
COc1ccc(CCNC(=O)c2c(N)sc3c2CCCC3)cc1OC [Compound K14]	61.09 ±3.04	-0.77	14.8	> 30	> 60	–
Cc1cccc(/C(N)=N/OC(=O)c2c(-c3ccccc3Cl)noc2C)c1 [Compound K15]	–	–	–	> 100	> 100	–
NNC(=O)c1sc(-c2ccccc2)cc1N [Compound K16]	51.51 ±4.91	8.81	19.7	> 30	31.7	–
Cc1nc(C(N)=NOC(=O)c2c(-c3ccccc3Cl)noc2C)cs1 [Compound K17]	–	–	–	> 30	> 60	binding at rat A3R [1]: very weak binding; pKi [1]: 4.60 ± 0.09
CCOC(=O)CC(=O)Nc1ccsc1C(N)=O [Compound K28]	64.14 ±1.73	-3.82	> 100	18	30	–
CCC(C)CC(=O)Nc1ccsc1C(N)=O (stereo not drawn) [Compound K35]	71.56 ±3.54	-11.24	27.4	7.33	> 30	–

Second part, led by results:

cAMP accumulation Mean [2] [%10 μM forskolin response]	cAMP accumulation Mean difference between 'NECA' and compound [2] [%10 μM forskolin response]	SMILES	Ki [3] [µM]	Ki [4] [µM]	Ki [5] [µM]	further results
63.37 ±2.66	-3.05	NC(=NOC(=O)c1csnn1)c1ccc(-c2csnn2)cc1 [Compound K3]	> 100	> 100	> 100	–
59.06 ±0.13	1.26	NC(=NNC(=O)Nc1ccc(Cl)cc1)c1ccc(C(F)(F)F)cn1 [Compound K4]	> 100	> 100	> 100	–
64.01 ±5.22	-3.69	O=C(Nc1ccc(OC(F)(F)F)cc1)Nc1cc(-c2cccs2)n[nH]1 [Compound K6]	30.6	> 100	> 100	–
59.66 ±0.98	0.66	Nc1sccc1C(=O)NCCc1ccccc1 [Compound K12]	37.1	> 100	> 60	–
64.58 ±4.94	-4.26	COc1ccccc1N=C(N)SCc1ccccc1 [Compound K19]	> 100	> 100	> 100	–
73.54 ±2.98	-13.22	COc1cccc(C=NNC(=O)c2cc(-c3ccccc3)sc2N)c1 [Compound K21]	5.77	> 100	3.93	True Basal [6, 7]: 101.6 ±5.1; Span ([6]; 1 µM compound): 119.4 ±9.4; Emin ([6]; 1 µM compound): 2.0 ±7.6 % 10 µM forskolin response relative to NECA response; effect on NECA potency / antagonism [6]: no effect; Basal ([6]; 1 µM compound): 121.5 ±6.1 % 10 µM forskolin inhibition, relative to NECA; True Basal [6, 8]: 118.6 ±4.8; Span ([6]; 10 µM compound): 104.6 ±7.7; Emin ([6]; 10 µM compound): 30.1 ±6.8 % 10 µM forskolin response relative to NECA response; effect on NECA potency [6]: reduce the NECA potency; Basal ([6]; 10 µM compound): 134.7 ±4.3 % 10 µM forskolin inhibition, relative to NECA; outcome of cAMP-based screen [2]: no activity
70.56 ±3.64	-10.24	Nc1sc(-c2ccccc2)cc1C(=O)NN=Cc1ccccc1 [Compound K22]	5.16	15.2	4.59	True Basal [6, 7]: 101.9 ±8.4; Span ([6]; 1 µM compound): 120.9 ±8.8; Emin ([6]; 1 µM compound): 0.4 ±7.1 % 10 µM forskolin response relative to NECA response; effect on NECA potency / antagonism [6]: no effect; Basal ([6]; 1 µM compound): 121.3 ±5.8 % 10 µM forskolin inhibition, relative to NECA; True Basal [6, 8]: 124.5 ±8.2; Span ([6]; 10 µM compound): 97.5 ±8.0; Emin ([6]; 10 µM compound): 41.6 ±7.1 % 10 µM forskolin response relative to NECA response; effect on NECA potency [6]: reduce the NECA potency; Basal ([6]; 10 µM compound): 139.1 ±4.2 % 10 µM forskolin inhibition, relative to NECA; outcome of cAMP-based screen [2]: no activity
51.39 ±3.11	8.93	CC(C)(C)c1ccc(/C(N)=N/OC(=O)c2cnn(-c3ccccc3)c2C(F)(F)F)cc1 [Compound K24]	5.39	7.48	> 100	True Basal [6, 7]: 103.6 ±7.7; Span ([6]; 1 µM compound): 103.7 ±7.9; Emin ([6]; 1 µM compound): 5.9 ±6.5 % 10 µM forskolin response relative to NECA response; effect on NECA potency / antagonism [6]: no effect; Basal ([6]; 1 µM compound): 109.5 ±4.9 % 10 µM forskolin inhibition, relative to NECA; True Basal [6, 8]: 117.7 ±0.9; Span ([6]; 10 µM compound): 107.4 ±5.7; Emin ([6]; 10 µM compound): 23.4 ±4.5 % 10 µM forskolin response relative to NECA response; effect on NECA potency [6]: reduce the NECA potency; Basal ([6]; 10 µM compound): 130.8 ±3.3 % 10 µM forskolin inhibition, relative to NECA; outcome of cAMP-based screen [2]: no activity
